Assay results taken from ChEMBL document CHEMBL4385643, “Design of a brain-penetrant CDK4/6 inhibitor for glioblastoma” (Bioorg Med Chem Lett, 2019).

Columns and labels:
[1] = target: Bone morphogenetic protein receptor type-1A (Homo sapiens) (UniProt P36894); assay: Inhibition of tracer 178 binding to recombinant human GST-tagged BMPR1A catalytic domain (187 to 532 amino acids) expressed insect cell expression system at 0.1 uM measured after 60 mins by Lanthascreen assay relative to control
[2] = target: Epidermal growth factor receptor (Homo sapiens) (UniProt P00533); assay: Inhibition of recombinant human GST-tagged EGFR (668 to 1210 residues) expressed in baculovirus expression system at 0.1 uM using tyrosine-4 peptide as substrate incubated for 60 mins by Z'-LYTE assay relative to control
[3] = target: Protein kinase C epsilon type (Homo sapiens) (UniProt Q02156); assay: Inhibition of recombinant full length human GST-tagged PKCepsilon expressed in insect expression system at 0.1 uM using serine/threonine-7 peptide as substrate incubated for 60 mins by Z'-LYTE assay relative to control
[4] = target: Serine/threonine-protein kinase N1 (Homo sapiens) (UniProt Q16512); assay: Inhibition of recombinant full length human GST-tagged PRK1 expressed in baculovirus expression system at 0.1 uM using serine/threonine-7 peptide as substrate incubated for 60 mins by Z'-LYTE assay relative to control
[5] = target: Ephrin type-A receptor 8 (Homo sapiens) (UniProt P29322); assay: Inhibition of recombinant human GST-tagged EPHA8 catalytic domain (565 to 1005 residues) expressed in baculovirus expression system at 0.1 uM using tyrosine-2 peptide as substrate incubated for 60 mins by Z'-LYTE assay relative to control
[6] = target: cAMP-dependent protein kinase catalytic subunit PRKX (Homo sapiens) (UniProt P51817); assay: Inhibition of recombinant full length human GST-tagged PRKX expressed in baculovirus expression system at 0.1 uM using serine/threonine-1 peptide as substrate incubated for 60 mins by Z'-LYTE assay relative to control
[7] = target: Mitogen-activated protein kinase kinase kinase 9 (Homo sapiens) (UniProt P80192); assay: Inhibition of recombinant human GST-tagged MLK1 catalytic domain (1 to 500 residues) expressed in baculovirus expression system at 0.1 uM using serine/threonine-7 peptide as substrate incubated for 60 mins by Z'-LYTE assay relative to control
[8] = target: Dual specificity tyrosine-phosphorylation-regulated kinase 4 (Homo sapiens) (UniProt Q9NR20); assay: Inhibition of recombinant full length human GST-tagged DYRK4 expressed in baculovirus expression system at 0.1 uM using serine/threonine-9 peptide as substrate incubated for 60 mins by Z'-LYTE assay relative to control
[9] = target: Serine/threonine-protein kinase mTOR (Homo sapiens) (UniProt P42345); assay: Inhibition of recombinant human GST-tagged mTOR catalytic domain (1360 to 2549 residues) expressed in baculovirus expression system at 0.1 uM using serine/threonine-11 peptide as substrate incubated for 60 mins by Z'-LYTE assay relative to control
[10] = target: Mitogen-activated protein kinase 8 (Homo sapiens) (UniProt P45983); assay: Inhibition of recombinant full length human His-tagged JNK1alpha1 expressed in baculovirus expression system at 0.1 uM using serine/threonine-4 peptide as substrate incubated for 60 mins by Z'-LYTE assay relative to control
[11] = target: Serine/threonine-protein kinase Chk2 (Homo sapiens) (UniProt O96017); assay: Inhibition of recombinant full length human His-tagged CHK2 expressed in baculovirus expression system at 0.1 uM using serine/threonine-07 peptide as substrate incubated for 60 mins by Z'-LYTE assay relative to control
[12] = target: Mitogen-activated protein kinase 10 (Homo sapiens) (UniProt P53779); assay: Inhibition of recombinant full length human GST-tagged JNK3 expressed in baculovirus expression system at 0.1 uM using serine/threonine-4 peptide as substrate incubated for 60 mins by Z'-LYTE assay relative to control
[13] = target: Serine/threonine-protein kinase Sgk3 (Homo sapiens) (UniProt Q96BR1); assay: Inhibition of recombinant human GST-tagged SGK3 catalytic domain (87 to 496 residues) expressed in baculovirus expression system at 0.1 uM using serine/threonine-6 peptide as substrate incubated for 60 mins by Z'-LYTE assay relative to control
[14] = target: Protein kinase C theta type (Homo sapiens) (UniProt Q04759); assay: Inhibition of recombinant full length human His-tagged PKCtheta expressed in baculovirus expression system at 0.1 uM using serine/threonine-7 peptide as substrate incubated for 60 mins by Z'-LYTE assay relative to control
[15] = target: Wee1-like protein kinase (Homo sapiens) (UniProt P30291); assay: Inhibition of tracer 178 binding to recombinant full length human GST-tagged WEE1 expressed in baculovirus expression system at 0.1 uM measured after 60 mins by Lanthascreen assay relative to control
[16] = target: Ephrin type-B receptor 1 (Homo sapiens) (UniProt P54762); assay: Inhibition of recombinant human GST-tagged EPHB1 catalytic domain (613 to 881 residues) expressed in baculovirus expression system at 0.1 uM using tyrosine-2 peptide as substrate incubated for 60 mins by Z'-LYTE assay relative to control
[17] = target: CDK3/Cyclin E (Homo sapiens) (UniProt P24864+Q00526); assay: Inhibition of tracer 236 binding to recombinant human GST-tagged CDK3/CyclinE1 expressed by baculovirus in Sf9 insect cells expression system at 0.1 uM measured after 60 mins by Lanthascreen assay relative to control
[18] = target: Death-associated protein kinase 3 (Homo sapiens) (UniProt O43293); assay: Inhibition of recombinant full length human GST-tagged ZIPK expressed in baculovirus expression system at 0.1 uM using serine/threonine-13 peptide as substrate incubated for 60 mins by Z'-LYTE assay relative to control
[19] = target: SRSF protein kinase 3 (Homo sapiens) (UniProt Q9UPE1); assay: Inhibition of recombinant full length human GST-tagged MSSK1 expressed in baculovirus expression system at 0.1 uM using serine/threonine-18 peptide as substrate incubated for 60 mins by Z'-LYTE assay relative to control
[20] = target: Receptor tyrosine-protein kinase erbB-4 (Homo sapiens) (UniProt Q15303); assay: Inhibition of recombinant human GST-tagged ERBB4 catalytic domain (708 to 993 residues) expressed in baculovirus expression system at 0.1 uM using tyrosine-1 peptide as substrate incubated for 60 mins by Z'-LYTE assay relative to control
[21] = target: Serine/threonine-protein kinase 33 (Homo sapiens) (UniProt Q9BYT3); assay: Inhibition of tracer 236 binding to recombinant full length human His-tagged STK33 expressed in baculovirus expression system at 0.1 uM measured after 60 mins by Lanthascreen assay relative to control
[22] = target: Mitogen-activated protein kinase kinase kinase kinase 5 (Homo sapiens) (UniProt Q9Y4K4); assay: Inhibition of recombinant full length human GST-tagged KHS1 expressed in baculovirus expression system at 0.1 uM using serine/threonine-7 peptide as substrate incubated for 60 mins by Z'-LYTE assay relative to control
[23] = target: Tyrosine-protein kinase CSK (Homo sapiens) (UniProt P41240); assay: Inhibition of recombinant full length human His-tagged CSK expressed in Escherichia coli expression system at 0.1 uM using tyrosine-2 peptide as substrate incubated for 60 mins by Z'-LYTE assay relative to control

Chain of CDK3/Cyclin E (Homo sapiens) (P24864 whole entry, looked up): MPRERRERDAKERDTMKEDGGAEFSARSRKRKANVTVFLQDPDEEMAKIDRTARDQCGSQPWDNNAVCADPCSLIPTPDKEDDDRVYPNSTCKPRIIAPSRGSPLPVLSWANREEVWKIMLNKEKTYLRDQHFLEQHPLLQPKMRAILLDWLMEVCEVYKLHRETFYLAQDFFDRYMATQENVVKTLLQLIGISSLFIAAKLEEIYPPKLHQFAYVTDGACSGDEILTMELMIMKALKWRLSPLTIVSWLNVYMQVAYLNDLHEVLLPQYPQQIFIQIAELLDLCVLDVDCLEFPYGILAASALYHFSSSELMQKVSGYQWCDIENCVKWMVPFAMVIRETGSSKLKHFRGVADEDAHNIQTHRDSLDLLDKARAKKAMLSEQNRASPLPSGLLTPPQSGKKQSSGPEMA
Chain of CDK3/Cyclin E (Homo sapiens) (Q00526 whole entry, looked up): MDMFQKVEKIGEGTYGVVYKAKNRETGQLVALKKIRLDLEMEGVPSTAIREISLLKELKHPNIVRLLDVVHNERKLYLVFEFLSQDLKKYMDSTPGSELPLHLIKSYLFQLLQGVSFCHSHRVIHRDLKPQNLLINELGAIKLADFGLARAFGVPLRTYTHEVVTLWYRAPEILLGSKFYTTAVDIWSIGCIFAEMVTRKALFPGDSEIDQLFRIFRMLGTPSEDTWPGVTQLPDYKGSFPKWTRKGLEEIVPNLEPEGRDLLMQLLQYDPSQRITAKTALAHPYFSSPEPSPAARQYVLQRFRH
Chain of Epidermal growth factor receptor (Homo sapiens) (P00533 whole entry, the tested form may be a part): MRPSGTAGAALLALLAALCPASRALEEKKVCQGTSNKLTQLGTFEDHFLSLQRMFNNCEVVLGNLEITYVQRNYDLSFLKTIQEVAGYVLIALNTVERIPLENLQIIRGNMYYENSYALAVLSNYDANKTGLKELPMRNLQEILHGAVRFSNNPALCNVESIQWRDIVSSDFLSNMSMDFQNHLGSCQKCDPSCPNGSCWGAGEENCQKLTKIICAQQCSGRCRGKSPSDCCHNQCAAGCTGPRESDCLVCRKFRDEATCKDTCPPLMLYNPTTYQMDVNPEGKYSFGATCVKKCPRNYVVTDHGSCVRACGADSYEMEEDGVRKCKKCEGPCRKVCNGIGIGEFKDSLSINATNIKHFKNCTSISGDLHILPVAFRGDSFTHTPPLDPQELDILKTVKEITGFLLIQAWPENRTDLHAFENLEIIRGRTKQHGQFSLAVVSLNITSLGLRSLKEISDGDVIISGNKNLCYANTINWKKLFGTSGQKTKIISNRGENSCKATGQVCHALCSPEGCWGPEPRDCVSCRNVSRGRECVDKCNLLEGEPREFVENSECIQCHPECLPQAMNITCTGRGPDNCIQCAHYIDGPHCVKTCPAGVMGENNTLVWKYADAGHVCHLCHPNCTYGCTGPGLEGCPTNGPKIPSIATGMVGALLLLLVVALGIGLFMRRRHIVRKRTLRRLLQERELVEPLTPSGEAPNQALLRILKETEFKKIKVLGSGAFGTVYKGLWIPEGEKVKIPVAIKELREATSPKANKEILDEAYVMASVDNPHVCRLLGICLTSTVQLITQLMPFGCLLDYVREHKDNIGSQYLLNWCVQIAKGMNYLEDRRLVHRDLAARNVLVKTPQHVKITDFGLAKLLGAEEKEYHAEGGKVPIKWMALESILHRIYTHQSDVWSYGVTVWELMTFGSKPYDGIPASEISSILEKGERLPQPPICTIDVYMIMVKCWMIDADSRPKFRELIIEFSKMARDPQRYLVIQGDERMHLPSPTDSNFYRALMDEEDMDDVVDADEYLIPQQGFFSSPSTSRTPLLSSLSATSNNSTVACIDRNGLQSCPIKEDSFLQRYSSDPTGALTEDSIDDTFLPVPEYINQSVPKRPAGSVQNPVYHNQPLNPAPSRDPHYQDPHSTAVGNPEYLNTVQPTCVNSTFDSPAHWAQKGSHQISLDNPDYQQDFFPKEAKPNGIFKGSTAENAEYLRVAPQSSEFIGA
Chain of Mitogen-activated protein kinase 8 (Homo sapiens) (P45983 whole entry): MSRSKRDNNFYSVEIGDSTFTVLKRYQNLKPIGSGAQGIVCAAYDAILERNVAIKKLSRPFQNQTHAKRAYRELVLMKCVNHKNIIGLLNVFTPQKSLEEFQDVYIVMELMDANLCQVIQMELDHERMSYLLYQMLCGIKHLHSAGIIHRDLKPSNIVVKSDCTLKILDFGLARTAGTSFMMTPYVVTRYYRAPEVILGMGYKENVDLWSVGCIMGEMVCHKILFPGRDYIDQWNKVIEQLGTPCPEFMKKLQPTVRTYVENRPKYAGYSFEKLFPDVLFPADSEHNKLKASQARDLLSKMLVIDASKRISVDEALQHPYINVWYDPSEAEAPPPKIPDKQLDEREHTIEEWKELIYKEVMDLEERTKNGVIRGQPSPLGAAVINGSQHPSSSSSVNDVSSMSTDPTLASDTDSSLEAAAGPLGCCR
Chain of Bone morphogenetic protein receptor type-1A (Homo sapiens) (P36894 whole entry, the tested form may be a part): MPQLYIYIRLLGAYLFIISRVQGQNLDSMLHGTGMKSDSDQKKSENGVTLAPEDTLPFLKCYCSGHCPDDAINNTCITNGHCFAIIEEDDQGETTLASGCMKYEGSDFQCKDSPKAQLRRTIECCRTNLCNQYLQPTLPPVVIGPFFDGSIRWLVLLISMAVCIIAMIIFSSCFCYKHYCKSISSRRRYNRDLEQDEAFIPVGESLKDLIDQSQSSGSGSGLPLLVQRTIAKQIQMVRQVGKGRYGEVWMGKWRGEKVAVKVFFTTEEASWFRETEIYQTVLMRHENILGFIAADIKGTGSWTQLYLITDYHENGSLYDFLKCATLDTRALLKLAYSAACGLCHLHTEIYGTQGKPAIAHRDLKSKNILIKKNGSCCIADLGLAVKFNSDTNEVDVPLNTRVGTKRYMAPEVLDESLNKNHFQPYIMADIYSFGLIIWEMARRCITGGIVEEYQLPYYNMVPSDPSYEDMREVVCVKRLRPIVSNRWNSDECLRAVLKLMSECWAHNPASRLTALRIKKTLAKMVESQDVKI
Chain of Serine/threonine-protein kinase Sgk3 (Homo sapiens) (Q96BR1 whole entry, the tested form may be a part): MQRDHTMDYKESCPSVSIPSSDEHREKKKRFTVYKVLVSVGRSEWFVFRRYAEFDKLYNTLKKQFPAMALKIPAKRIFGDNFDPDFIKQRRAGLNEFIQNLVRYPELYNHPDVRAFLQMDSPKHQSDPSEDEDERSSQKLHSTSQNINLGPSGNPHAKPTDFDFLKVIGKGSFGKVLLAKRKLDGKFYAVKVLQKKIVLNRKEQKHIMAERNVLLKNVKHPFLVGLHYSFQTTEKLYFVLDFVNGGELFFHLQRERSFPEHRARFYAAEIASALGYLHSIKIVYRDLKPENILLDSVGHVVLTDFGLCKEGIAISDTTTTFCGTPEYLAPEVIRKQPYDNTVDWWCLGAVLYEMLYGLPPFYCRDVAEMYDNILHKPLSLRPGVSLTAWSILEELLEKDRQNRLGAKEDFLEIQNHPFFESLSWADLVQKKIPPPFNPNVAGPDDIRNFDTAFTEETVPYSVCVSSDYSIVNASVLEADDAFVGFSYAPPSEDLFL
Chain of Protein kinase C theta type (Homo sapiens) (Q04759 whole entry, looked up): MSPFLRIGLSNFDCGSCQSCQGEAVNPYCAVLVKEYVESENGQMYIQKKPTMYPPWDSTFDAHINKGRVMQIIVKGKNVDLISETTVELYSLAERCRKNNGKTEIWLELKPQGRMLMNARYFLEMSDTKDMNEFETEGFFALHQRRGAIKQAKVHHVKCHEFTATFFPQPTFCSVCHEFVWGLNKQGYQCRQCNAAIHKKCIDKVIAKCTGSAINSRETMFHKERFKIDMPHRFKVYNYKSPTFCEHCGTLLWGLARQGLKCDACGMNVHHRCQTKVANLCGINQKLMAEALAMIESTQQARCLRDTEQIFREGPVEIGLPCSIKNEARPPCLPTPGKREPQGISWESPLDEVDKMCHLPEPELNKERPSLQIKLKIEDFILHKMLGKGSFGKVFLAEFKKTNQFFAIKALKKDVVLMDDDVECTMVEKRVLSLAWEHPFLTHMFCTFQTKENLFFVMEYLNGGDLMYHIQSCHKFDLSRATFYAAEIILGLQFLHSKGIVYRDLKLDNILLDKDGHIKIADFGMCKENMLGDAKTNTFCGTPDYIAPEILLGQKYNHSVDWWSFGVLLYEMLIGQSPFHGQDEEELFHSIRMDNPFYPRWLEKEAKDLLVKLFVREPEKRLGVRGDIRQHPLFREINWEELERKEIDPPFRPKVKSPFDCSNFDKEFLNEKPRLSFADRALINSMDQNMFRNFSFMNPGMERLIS
Chain of cAMP-dependent protein kinase catalytic subunit PRKX (Homo sapiens) (P51817 whole entry, the tested form may be a part): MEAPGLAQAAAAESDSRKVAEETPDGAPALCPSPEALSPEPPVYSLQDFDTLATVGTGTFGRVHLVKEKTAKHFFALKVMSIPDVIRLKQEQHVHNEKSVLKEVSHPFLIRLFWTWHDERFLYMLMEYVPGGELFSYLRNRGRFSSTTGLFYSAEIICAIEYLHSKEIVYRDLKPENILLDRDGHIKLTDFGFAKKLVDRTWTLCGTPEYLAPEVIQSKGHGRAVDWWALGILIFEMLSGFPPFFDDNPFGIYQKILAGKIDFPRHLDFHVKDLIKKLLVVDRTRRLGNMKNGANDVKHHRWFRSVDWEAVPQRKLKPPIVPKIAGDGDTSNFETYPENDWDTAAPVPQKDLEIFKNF
Chain of Serine/threonine-protein kinase Chk2 (Homo sapiens) (O96017 whole entry): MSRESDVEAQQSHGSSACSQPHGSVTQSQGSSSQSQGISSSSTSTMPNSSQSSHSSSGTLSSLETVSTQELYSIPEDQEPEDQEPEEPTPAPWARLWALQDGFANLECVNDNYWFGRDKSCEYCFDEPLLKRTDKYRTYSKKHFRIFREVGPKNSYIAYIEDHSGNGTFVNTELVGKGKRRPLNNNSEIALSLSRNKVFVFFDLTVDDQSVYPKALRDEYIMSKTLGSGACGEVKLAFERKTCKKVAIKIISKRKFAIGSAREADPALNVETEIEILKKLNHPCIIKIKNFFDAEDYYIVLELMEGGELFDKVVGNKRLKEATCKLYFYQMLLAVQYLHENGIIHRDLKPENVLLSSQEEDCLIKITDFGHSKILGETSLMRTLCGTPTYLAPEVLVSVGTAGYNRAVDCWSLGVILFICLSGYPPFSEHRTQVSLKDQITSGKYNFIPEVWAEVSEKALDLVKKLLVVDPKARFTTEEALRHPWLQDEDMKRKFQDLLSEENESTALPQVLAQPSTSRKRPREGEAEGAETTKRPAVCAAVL

SMILES	inhibition [1]	inhibition [2]	inhibition [3]	inhibition [4]	inhibition [5]	inhibition [6]	inhibition [7]	inhibition [8]	inhibition [9]	inhibition [10]	inhibition [11]	inhibition [12]	inhibition [13]	inhibition [14]	inhibition [15]	inhibition [16]	inhibition [17]	inhibition [18]	inhibition [19]	inhibition [20]	further results
CCN1CCN(Cc2ccc(Nc3ncc(F)c(-c4cc(F)c5nc(C)n(C(C)C)c5c4)n3)nc2)CC1 [ABEMACICLIB]	-0.3%	4%	22.5%	7%	1%	5%	11.5%	5%	9.5%	46.2%	0.5%	59.1%	12%	21.5%	5.5%	0.5%	24.5%	54.5%	3.5%	3%	inhibition [21]: 50.8%; inhibition [22]: 27.3%; inhibition [23]: 4%
CCN1CC2(C1)CN(c1ccc(Nc3ncc(F)c(-c4cnn5c4[C@H](C)CCCC5)n3)nc1)C2	0.5%	0%	14.5%	8.5%	3.5%	5.5%	47%	3%	2%	78%	22.5%	66.5%	7%	20.5%	11%	8%	56.5%	6%	9%	-6.5%	inhibition [21]: 50%; inhibition [22]: 22%; inhibition [23]: 3%
